# According to ChEMBL document CHEMBL1201862, “PubChem BioAssay data set” (2004):
# Calls of active or inactive are those of the source.
# How the values were obtained:
# [1] = target: Bifunctional protein GlmU (Mycobacterium tuberculosis, UniProt P9WMN3); experiment: Inhibitors of Mycobacterial Glucosamine-1-phosphate acetyl transferase (GlmU). Secondary screen.; parameters: species or system Mycobacterium tuberculosis H37Rv
# [2] = Luminescent dose response cell-based high throughput screening assay for inhibitors of the Janus kinase 2 mutant JAK2V617F. [Related pubchem assays: 1446 (Primary screen.), 1521 (Confirmation assay.), 1486 (Counter screen.)]; type: functional
# [3] = target: Ubiquitin carboxyl-terminal hydrolase BAP1 (Homo sapiens, UniProt Q92560); experiment: BAP1 deubiquitinase inhibitors, dose response, biochemical (AID 714); type: functional
# Chain of Ubiquitin carboxyl-terminal hydrolase BAP1 (Q92560 whole entry): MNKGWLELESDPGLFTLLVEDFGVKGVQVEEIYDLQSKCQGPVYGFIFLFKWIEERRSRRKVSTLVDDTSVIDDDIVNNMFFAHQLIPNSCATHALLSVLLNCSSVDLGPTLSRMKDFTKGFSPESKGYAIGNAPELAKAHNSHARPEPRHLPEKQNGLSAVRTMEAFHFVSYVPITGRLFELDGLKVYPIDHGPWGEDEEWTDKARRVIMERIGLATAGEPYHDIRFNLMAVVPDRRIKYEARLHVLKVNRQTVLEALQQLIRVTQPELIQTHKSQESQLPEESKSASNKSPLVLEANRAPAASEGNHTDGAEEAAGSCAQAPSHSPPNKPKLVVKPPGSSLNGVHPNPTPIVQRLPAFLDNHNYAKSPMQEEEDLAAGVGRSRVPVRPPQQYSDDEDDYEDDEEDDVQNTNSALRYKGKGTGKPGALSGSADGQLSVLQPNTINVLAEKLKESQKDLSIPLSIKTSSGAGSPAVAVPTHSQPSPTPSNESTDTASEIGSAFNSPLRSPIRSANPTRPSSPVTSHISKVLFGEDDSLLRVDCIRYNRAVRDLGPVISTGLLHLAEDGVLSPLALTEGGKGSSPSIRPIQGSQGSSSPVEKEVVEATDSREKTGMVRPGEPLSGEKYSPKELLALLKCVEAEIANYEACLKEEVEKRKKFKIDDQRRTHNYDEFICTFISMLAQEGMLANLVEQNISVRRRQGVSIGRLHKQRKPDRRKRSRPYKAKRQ
# [4] = target: T1, Mannose-6-phosphate isomerase (Homo sapiens, UniProt P34949); experiment: human PMI inhibitors, high substrate, primary screen, biochemical, fluorescence intensity, high mannose 6-phosphate (AID 1220)
# T1 sequence (P34949 whole entry): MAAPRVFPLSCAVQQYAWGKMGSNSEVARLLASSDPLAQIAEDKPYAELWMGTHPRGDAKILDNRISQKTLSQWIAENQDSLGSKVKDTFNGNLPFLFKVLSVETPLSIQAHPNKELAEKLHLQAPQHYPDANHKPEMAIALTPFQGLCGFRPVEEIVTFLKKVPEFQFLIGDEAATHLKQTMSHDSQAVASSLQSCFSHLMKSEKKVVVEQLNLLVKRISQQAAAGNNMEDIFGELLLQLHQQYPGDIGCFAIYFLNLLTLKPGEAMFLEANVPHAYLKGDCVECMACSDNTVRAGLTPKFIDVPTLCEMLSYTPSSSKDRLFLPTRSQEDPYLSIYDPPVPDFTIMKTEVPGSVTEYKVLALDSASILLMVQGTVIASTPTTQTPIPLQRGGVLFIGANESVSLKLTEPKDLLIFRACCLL
# [5] = system: A-375; experiment: A375 melanoma cell viability reduction, dose response, counter-screen for MITF modulator project, cherry-pick samples, set 2 (AID 540335); type: functional, cell-based; details: Homo sapiens
# [6] = system: HeLa; experiment: HeLa cell cytotoxicity, dose response, cytotoxicity control for MITF activator project, CellTiter-Glo luminescence, cherry-pick samples (AID 540259); type: functional, cell-based; details: Homo sapiens
# [7] = Luminescence Cell-Based Dose Response to Identify Activators of 5'UTR Stem-Loop Driven Prion Protein mRNA Translation in H4-C Neuroglioblastoma Cells. [Related pubchem assays: 1829 (Project Summary), 1814 (Primary HTS)]; type: functional
# [8] = system: A-375; experiment: MITF: Counter assay: A375 proliferation Measured in Cell-Based System Using Plate Reader - 2084-03_Inhibitor_Dose_DryPowder_Activity. [Related pubchem assays (depositor defined):AID488944]; type: functional; details: Homo sapiens
# [9] = Luminescence Cell-Based Dose Response to Identify Activators of Luciferase Translation or Activity in H4-C Neuroglioblastoma Cells. [Related pubchem assays: 1829 (Project Summary), 1814 (Primary HTS)]; type: functional
# [10] = system: H4; experiment: Luminescence Cell-Based Dose Response HTS to Identify Activators of 5'UTR Stem-Loop Driven Prion Protein mRNA Translation in H4 Neuroglioblastoma Cells. [Related pubchem assays: 1829 (Project Summary), 1814 (Primary HTS)]; type: functional; details: Homo sapiens
# [11] = Luminescence Cell-Based Dose Response HTS to Identify Activators of Luciferase Translation or Activity in H4 […] Cells. [Related pubchem assays: 1829 (Project Summary), 1814 (Primary HTS)]; type: functional
# [12] = Luminescence Cell-Based Dose Confirmation to Identify Activators of 5'UTR Stem-Loop Driven Alpha-Synuclein mRNA Translation in H4 Neuroglioblastoma Cells. [Related pubchem assays: 1829 (Project Summary), 1814 (Primary HTS)]; type: functional
# [13] = target: T2, Cytochrome P450 2C19 (Homo sapiens, UniProt P33261); experiment: qHTS Assay for Inhibitors and Substrates of Cytochrome P450 2C19. [Related pubchem assays: 410 ]; type: ADME; details: read-out: Potency
# T2 sequence (P33261 whole entry): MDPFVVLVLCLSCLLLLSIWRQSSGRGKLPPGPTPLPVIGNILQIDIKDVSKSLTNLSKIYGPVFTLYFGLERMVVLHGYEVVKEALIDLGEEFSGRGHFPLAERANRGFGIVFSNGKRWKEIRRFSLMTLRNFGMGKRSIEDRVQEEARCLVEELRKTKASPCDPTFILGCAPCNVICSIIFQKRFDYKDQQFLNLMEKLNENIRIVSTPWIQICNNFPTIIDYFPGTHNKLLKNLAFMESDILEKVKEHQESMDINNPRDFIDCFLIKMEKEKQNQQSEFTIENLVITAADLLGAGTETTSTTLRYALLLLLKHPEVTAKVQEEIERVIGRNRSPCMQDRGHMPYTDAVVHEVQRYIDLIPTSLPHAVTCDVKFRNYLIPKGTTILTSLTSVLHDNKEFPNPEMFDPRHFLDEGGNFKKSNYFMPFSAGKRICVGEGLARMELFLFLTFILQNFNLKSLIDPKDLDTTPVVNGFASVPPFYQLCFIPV
# [14] = target: T3, Heat shock factor protein 1 (Mus musculus, UniProt P38532); experiment: HSF1 potentiators in luciferase reporter cells, confirmation, cell-based, NIH3T3, luminescence, dose retest (AID 435004); type: functional;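 note: stress induced by proteasome inhibitor MG132 added 30 min after compound; luciferase reporter driven by HSF1 response element in NIH3T3 cells; actives raise luminescence as potentiators of the MG132 stress response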
# T3 sequence (P38532 whole entry): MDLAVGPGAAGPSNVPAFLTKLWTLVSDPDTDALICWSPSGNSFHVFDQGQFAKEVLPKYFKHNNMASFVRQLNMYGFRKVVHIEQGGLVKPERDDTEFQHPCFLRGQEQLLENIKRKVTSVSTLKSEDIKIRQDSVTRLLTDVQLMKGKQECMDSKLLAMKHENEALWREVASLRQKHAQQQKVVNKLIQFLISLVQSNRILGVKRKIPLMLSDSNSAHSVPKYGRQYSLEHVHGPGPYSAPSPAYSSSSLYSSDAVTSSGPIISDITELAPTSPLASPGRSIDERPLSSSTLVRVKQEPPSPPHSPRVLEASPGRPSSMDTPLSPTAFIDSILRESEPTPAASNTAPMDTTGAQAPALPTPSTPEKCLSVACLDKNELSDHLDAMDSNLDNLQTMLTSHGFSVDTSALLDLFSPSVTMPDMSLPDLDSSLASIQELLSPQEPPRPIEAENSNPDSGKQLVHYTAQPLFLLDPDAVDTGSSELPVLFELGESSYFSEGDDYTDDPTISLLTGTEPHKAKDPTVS
# [15] = inhibitors of HIV Env-driven cell fusion, dose response, cherry-pick (AID 652057); type: functional, cell-based
# [16] = inhibitors of clade B AD8 Env fusion, dose response, cell-based, cherry-pick (AID 652062); type: functional;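 note: luciferase signal from cell-cell fusion driven by HIV-1 clade B AD8 Env; potency is for inhibitors of fusion seen as a drop in luminescence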
# [17] = off-target signal loss in HeLa-CEM21 co-culture – HeLa F-luc CTL cells, cherry-picked, counter-screen for HIV-1 Env fusion inhibitor project, dose response (AID 652040); type: functional, cell-based;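 note: potency for signal decrease marking cytotoxic or nonspecific inhibition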
# [18] = CEM21 lymphoblast cell cytotoxicity, dose response, cytotoxicity control for viral fusion inhibitor project, CellTiter-Glo luminescence, cherry-picked (AID 652042); type: functional, cell-based;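 note: potency for signal decrease meaning cytotoxicity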
# [19] = target: T4, Estrogen receptor beta (Homo sapiens, UniProt Q92731);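 note: recombinant ER-beta bound to coactivator SRC1 peptide in presence of estradiol agonist; inhibitors block coactivator peptide binding and lower the FRET signal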
# T4 sequence (Q92731 whole entry): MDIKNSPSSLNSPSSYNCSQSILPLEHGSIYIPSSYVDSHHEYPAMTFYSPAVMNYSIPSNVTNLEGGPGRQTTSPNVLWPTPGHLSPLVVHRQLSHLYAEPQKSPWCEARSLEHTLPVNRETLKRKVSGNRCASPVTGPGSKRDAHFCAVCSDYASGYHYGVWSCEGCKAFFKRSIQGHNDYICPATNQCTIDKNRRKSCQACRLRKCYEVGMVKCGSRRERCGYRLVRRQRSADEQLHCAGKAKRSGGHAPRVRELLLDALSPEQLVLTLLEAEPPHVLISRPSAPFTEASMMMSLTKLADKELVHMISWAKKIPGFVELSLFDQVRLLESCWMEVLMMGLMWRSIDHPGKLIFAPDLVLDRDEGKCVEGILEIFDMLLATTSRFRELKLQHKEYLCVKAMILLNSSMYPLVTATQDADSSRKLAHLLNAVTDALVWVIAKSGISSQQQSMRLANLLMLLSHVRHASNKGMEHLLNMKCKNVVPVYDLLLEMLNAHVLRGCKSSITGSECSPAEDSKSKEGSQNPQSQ
# [20] = target: T4, Estrogen receptor beta; experiment: ERβ–SRC-3 coactivator interaction inhibitors, confirmation, orthogonal assay, biochemical, ELISA, streptavidin-HRP readout (AID 1060)
# [21] = ZM109 Env clade C HIV-1 fusion inhibitors, dose response, HeLa effector, CEM target cells, luciferase, cherry-pick (AID 652058); type: functional, cell-based
# [22] = target: T5, Glutathione-S-transferase (Schistosoma japonicum, UniProt Q26513); experiment: biotin-GST/anti-GST TR-FRET signal inhibitors, dose response, artefact control for Vif-APOBEC3G degradation inhibitor project, biochemical (AID 1117362); type: functional
# T5 sequence (Q26513 whole entry): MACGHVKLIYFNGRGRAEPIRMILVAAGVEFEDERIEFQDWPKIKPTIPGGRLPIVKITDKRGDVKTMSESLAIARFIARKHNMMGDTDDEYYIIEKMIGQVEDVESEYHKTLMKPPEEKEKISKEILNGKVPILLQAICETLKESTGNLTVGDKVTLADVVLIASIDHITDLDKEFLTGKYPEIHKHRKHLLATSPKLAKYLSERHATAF
# [23] = Vero cell cytotoxicity, dose response, cytotoxicity control for Vif-APOBEC3G degradation inhibitor project, Vero cells (AID 1117358); type: functional; details: Human immunodeficiency virus 1, Vero
# [24] = target: T6, Replicative DNA helicase DnaB (Mycobacterium tuberculosis, UniProt P9WMR3); experiment: DnaB intein splicing inhibitors, dose response, biochemical, cell-free fluorescence (AID 449749); type: functional
# T6 sequence (P9WMR3 whole entry): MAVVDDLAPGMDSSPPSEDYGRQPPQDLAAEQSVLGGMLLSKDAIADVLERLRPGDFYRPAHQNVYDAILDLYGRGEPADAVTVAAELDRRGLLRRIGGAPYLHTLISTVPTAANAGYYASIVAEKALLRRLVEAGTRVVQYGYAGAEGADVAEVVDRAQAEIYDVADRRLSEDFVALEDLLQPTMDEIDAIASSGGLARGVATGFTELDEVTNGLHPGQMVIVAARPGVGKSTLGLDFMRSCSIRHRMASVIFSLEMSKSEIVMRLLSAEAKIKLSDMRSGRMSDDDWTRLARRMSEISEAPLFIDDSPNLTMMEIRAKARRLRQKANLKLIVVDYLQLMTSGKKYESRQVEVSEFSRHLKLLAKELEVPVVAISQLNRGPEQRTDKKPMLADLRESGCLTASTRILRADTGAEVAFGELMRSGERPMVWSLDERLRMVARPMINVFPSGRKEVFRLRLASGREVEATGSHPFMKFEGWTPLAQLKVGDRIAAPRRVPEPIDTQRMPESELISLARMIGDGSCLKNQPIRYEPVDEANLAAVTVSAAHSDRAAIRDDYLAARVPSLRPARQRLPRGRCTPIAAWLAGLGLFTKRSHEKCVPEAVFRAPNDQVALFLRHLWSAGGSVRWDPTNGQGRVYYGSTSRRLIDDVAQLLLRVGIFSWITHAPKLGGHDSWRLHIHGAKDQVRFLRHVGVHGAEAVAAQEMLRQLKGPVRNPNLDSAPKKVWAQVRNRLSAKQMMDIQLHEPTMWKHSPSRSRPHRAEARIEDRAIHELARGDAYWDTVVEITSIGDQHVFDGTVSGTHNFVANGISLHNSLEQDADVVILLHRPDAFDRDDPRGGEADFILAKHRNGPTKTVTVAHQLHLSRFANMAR
# [25] = target: T7, Protein RecA (Mycobacterium tuberculosis, UniProt P9WHJ3); experiment: Fluorescence Cell-Free Homogeneous Dose Retest to Identify Inhibitors of RecA-Intein Splicing Activity. [Related pubchem assays (depositor defined):AID2097, AID2223, AID489010, AID492950]; type: functional
# T7 sequence (P9WHJ3 whole entry): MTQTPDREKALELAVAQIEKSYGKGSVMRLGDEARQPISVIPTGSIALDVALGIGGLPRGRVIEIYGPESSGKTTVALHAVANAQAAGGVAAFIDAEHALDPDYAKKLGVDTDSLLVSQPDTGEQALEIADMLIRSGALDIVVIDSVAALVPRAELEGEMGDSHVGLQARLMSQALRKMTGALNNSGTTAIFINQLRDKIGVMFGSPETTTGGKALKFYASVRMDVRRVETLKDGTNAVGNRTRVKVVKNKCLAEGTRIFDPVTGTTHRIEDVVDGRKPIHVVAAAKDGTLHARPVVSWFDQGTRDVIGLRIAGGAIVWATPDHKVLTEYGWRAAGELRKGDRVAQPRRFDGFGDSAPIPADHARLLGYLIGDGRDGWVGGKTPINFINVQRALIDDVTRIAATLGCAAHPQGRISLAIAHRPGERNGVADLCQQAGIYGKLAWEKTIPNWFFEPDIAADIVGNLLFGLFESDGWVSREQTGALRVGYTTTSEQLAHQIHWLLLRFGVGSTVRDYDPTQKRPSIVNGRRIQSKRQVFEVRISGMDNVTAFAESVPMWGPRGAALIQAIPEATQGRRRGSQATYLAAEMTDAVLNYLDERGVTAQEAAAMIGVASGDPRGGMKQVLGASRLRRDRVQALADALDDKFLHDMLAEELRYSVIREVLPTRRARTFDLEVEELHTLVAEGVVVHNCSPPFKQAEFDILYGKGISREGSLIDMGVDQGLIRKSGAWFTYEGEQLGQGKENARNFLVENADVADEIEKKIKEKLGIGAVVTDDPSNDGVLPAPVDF
# [26] = target: T3, Heat shock factor protein 1; experiment: inhibition of MG132-induced HSE-luciferase signal, confirmation, cell-based, NIH3T3, luminescence, dose retest (AID 2382); type: functional;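 note: NIH3T3 fibroblasts with HSF1-driven luciferase reporter stressed by proteasome inhibitor MG132; luminescence from HSF1-driven luciferase expression after 8 hours of MG132 stress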
# [27] = target: T2, Cytochrome P450 2C19; experiment: Cytochrome panel assay with activity outcomes. Panel member name: p450-cyp2c19 Compounds with AC50 equal or less than 10 uM are considered active; type: functional
# Chain of Bifunctional protein GlmU (P9WMN3 whole entry): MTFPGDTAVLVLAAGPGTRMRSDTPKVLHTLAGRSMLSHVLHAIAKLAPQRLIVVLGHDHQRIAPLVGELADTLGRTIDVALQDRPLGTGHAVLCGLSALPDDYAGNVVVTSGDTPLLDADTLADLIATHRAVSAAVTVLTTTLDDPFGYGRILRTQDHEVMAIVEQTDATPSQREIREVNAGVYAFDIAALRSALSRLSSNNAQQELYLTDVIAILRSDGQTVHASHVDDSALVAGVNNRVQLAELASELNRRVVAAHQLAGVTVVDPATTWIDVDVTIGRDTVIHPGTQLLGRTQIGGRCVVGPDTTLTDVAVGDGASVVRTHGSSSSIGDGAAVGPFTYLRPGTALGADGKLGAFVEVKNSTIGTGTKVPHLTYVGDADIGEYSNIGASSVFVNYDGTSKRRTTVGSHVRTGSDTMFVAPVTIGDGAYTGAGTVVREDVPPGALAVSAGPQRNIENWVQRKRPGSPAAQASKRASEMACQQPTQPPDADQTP
smiles,measurement,setting,value
O=C1CCCC(=O)C1=NNc1cccc(C(=O)O)c1,IC50,[1],120 µM (active)
CC(C)(C)/C(O)=C/c1nc2cc(Cl)ccc2oc1=O,IC50,[2],1.7 µM (active)
CC1=CC(C)(C)Nc2cc(C)c(C)cc21,IC50,[3],> 50 µM (not active)
O=[N+]([O-])c1c(NCCO)cc(N2CCCCC2)c2nonc12,IC50,[4],> 50 µM (not active)
COc1ccc(/C=N/N=C2/SCC(=O)N2Cc2ccccc2)cc1,AC50,[5],> 35 µM (active)
same,AC50,[6],164 µM (active)
same,EC50,[7],0.361 µM (active)
same,AC50,[8],> 35 µM (active)
same,EC50,[9],0.335 µM (active)
same,EC50,[10],> 120 µM (not active)
same,EC50,[11],< 0.1 µM (active)
same,EC50,[12],0.581 µM (active)
O=C(NCc1ccccc1)c1cnc2ccc(S(=O)(=O)Nc3ccc4c(c3)OCCO4)cc2c1O,IC50,[3],> 50 µM (not active)
COc1cc([C@@H]2Oc3cc([C@H]4Oc5cc(O)cc(O)c5C(=O)[C@H]4O)ccc3O[C@H]2CO)ccc1O,AC50,[13],15.8 µM (inconclusive)
O=C(Oc1ccc2c(c1)OCO2)c1cc2c(s1)CCC2,EC50,[14],> 260 µM (inactive)
same,AC50,[15],10.4 µM (active)
same,AC50,[16],7.2 µM (active)
same,AC50,[17],10.8 µM (active)
same,AC50,[18],2.01 µM (active)
same,IC50,[19],< 1.56 µM (active)
same,IC50,[20],< 0.023 µM (not active)
same,AC50,[21],3.31 µM (active)
CCN(CC)c1ccc2c(c1)CCCN2,IC50,[22],48.6 µM (active)
same,CC50,[23],> 40 µM (active)
same,AC50,[24],> 120 µM (inactive)
same,EC50,[25],> 380 µM (inconclusive)
CCCCCCC(=O)Cc1cc(OC)c(OC)cc1C=C(C(=O)OCC)C(=O)OCC,AC50,[13],3.16 µM (inconclusive)
Nc1nc(N)c2nc(-c3ccccc3)c(N)nc2n1,IC50,[2],0.807 µM (active)
same,EC50,[26],> 195 µM (not active)
same,AC50,[27],inactive
N#Cc1ccsc1NC(=O)CSc1ncnc2ccccc12,IC50,[19],> 50 µM (not active)
same,IC50,[20],< 0.023 µM (not active)
